Legend:
Format in all cases: cell-based, human
[1] = tested on: HTT; experiment: Splicing RT-qPCR assay, HTT mRNA canonical junction (CJ) and alternative junction (AJ); conditions: Homo sapiens, gene panel, CJ qPCR, protocol of Example 142; read-out: HTT IC50 (decrease in CJ mRNA levels)
Method in brief: (§1)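 A673 or K562 cells were treated 24 h at 37 °C with an 11-point 3-fold dilution series (top 10 uM final, DMSO ≤0.25%). Lysates underwent one-step RT-qPCR for canonical (CJ) and alternative (AJ) junctions; Ct normalized to GAPDH, GUSB or PPIA and DMSO control via 2^(−ΔΔCt), expressed as percentage response.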

[2] = tested on: MYB; experiment: Splicing RT-qPCR assay, MYB mRNA canonical junction (CJ) and alternative junction (AJ); conditions: Homo sapiens, gene panel, CJ qPCR, protocol of Example 142; read-out: MYB IC50 (decrease in CJ mRNA levels)
Method in brief: as §1

[3] = tested on: SMN2; experiment: Splicing RT-qPCR panel, SMN2 canonical junction (CJ) mRNA; conditions: Homo sapiens, gene panel, CJ qPCR, protocol of Example 142; read-out: SMN2 IC50 (decrease in CJ mRNA levels)
Method in brief: as §1

[4] = tested on: Target C; experiment: Splicing RT-qPCR panel, Target C canonical junction (CJ) mRNA; conditions: Homo sapiens, gene panel, CJ qPCR, protocol of Example 142; read-out: Target C IC50 (decrease in CJ mRNA levels)
Method in brief: as §1

[5] = tested on: MYB; experiment: HiBiT protein abundance assay, MYB; conditions: Homo sapiens, K562, 24 h, Table 13B, modified K562 cells
Method in brief: (§2)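 Luminescent readout from lytic HiBiT/LgBiT complementation reports endogenous tagged protein level in engineered K562 cells. Compounds dosed 24 h, top 10 μM final, 3-fold steps, 10 points. IC50 is the concentration giving 50% of untreated-control abundance, from 4-parameter logistic fit.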

[6] = tested on: HTT; experiment: HiBiT protein abundance assay, HTT; conditions: Homo sapiens, K562, 24 h, Table 13B, modified K562 cells
Method in brief: as §2

[7] = tested on: Target C; experiment: HiBiT protein abundance assay, Target C; conditions: Homo sapiens, K562, 24 h, Table 13B, modified K562 cells
Method in brief: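 Knock-in HiBiT clones, 10000/well; 10-pt 3-fold titration, top 10 μM final; DMSO ≤0.25%; 24 h, 37 °C, 5% CO2. Lytic HiBiT luminescence readout. 4PL fit, IC50 = concentration giving 50% of untreated abundance.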

Structure (SMILES) | IC50 [1] | IC50 [2] | IC50 [3] | IC50 [4] | IC50 [5] | IC50 [6] | IC50 [7]
COc1nc(-c2ccc(N(C)C3C[C@H]4CC[C@@H](C3)N4)nn2)ccc1-c1cnn(C)n1 (stereo partly shown) [Compound 932] | 0.1 to 1 µM | 0.1 to 1 µM | 0.1 to 1 µM | 0.1 to 1 µM | 0.1 to 1 µM | 0.1 to 1 µM | 0.1 to 1 µM
COc1nc(-c2ccc(NC3CCNCC3)nn2)ccc1-c1cnn(C)n1 [Compound 933] | > 10 µM | > 10 µM | 1 to 10 µM | > 10 µM | 1 to 10 µM | 1 to 10 µM | 1 to 10 µM
COc1nc(-c2ccc(OC3CC(C)(C)NC(C)(C)C3)nn2)ccc1-n1cccn1 [Compound 934] | 1 to 10 µM | > 10 µM | 1 to 10 µM | > 10 µM | 1 to 10 µM | 1 to 10 µM | 1 to 10 µM
COc1nc(-c2ccc(N(C)C3CC(C)(C)NC(C)(C)C3)nn2)ccc1-n1cccn1 [Compound 935] | 0.1 to 1 µM | 0.1 to 1 µM | 0.1 to 1 µM | 0.1 to 1 µM | 0.1 to 1 µM | 0.1 to 1 µM | 0.1 to 1 µM
CNc1nc(-c2ccc(N(C)[C@@H]3C[C@H]4CC[C@@H](C3)N4)nn2)ccc1-c1cn[nH]c1 [Compound 936] | 0.1 to 1 µM | 1 to 10 µM | < 0.1 µM | 0.1 to 1 µM | 0.1 to 1 µM | 0.1 to 1 µM | 0.1 to 1 µM
CC(C)Oc1nc(-c2ccc(N(C)[C@@H]3C[C@H]4CC[C@@H](C3)N4)nn2)ccc1-c1cn[nH]c1 [Compound 937] | 0.1 to 1 µM | 0.1 to 1 µM | < 0.1 µM | 1 to 10 µM | 0.1 to 1 µM | 0.1 to 1 µM | 1 to 10 µM
CN(C)c1nc(-c2ccc(N(C)[C@@H]3C[C@H]4CC[C@@H](C3)N4)nn2)ccc1-c1cn[nH]c1 [Compound 938] | 1 to 10 µM | > 10 µM | 1 to 10 µM | 1 to 10 µM | 1 to 10 µM | 1 to 10 µM | 1 to 10 µM
COc1nc(-c2ccc(NC3CCNCC3)nn2)ccc1-n1cccn1 [Compound 941] | > 10 µM | > 10 µM | 1 to 10 µM | > 10 µM | > 10 µM | > 10 µM | > 10 µM
COc1nc(-c2ccc(N[C@@H]3C[C@H]4CC[C@@H](C3)N4)nn2)ccc1-c1cnn(C)n1 [Compound 942] | 1 to 10 µM | > 10 µM | < 0.1 µM | 1 to 10 µM | 0.1 to 1 µM | < 0.1 µM | 0.1 to 1 µM
COc1nc(-c2ccc(O[C@@H]3C[C@H]4CC[C@@H](C3)N4)nn2)ccc1-c1cn(C)nn1 [Compound 943] | 1 to 10 µM | > 10 µM | > 10 µM | > 10 µM | 1 to 10 µM | 1 to 10 µM | > 10 µM
COc1nc(-c2ccc(N[C@@H]3C[C@H]4CC[C@@H](C3)N4)nn2)ccc1-c1cn(C)nn1 [Compound 944] | 0.1 to 1 µM | 1 to 10 µM | 0.1 to 1 µM | 1 to 10 µM | 0.1 to 1 µM | 1 to 10 µM | 1 to 10 µM
COc1nc(-c2ccc(N(C)[C@@H]3C[C@H]4CC[C@@H](C3)N4)nn2)ccc1-c1cn(C)nn1 [Compound 945] | 0.1 to 1 µM | 1 to 10 µM | < 0.1 µM | 1 to 10 µM | 0.1 to 1 µM | 0.1 to 1 µM | 0.1 to 1 µM
COc1nc(-c2ccc(OC3CC(C)(C)NC(C)(C)C3)nn2)ccc1-c1cn(C)nn1 [Compound 946] | 1 to 10 µM | 1 to 10 µM | 0.1 to 1 µM | > 10 µM | 1 to 10 µM | 1 to 10 µM | > 10 µM
COc1nc(-c2ccc(N[C@@H]3C[C@H]4CC[C@@H](C3)N4)nn2)ccc1-n1cccn1 [Compound 948] | 0.1 to 1 µM | 1 to 10 µM | 0.1 to 1 µM | 1 to 10 µM | 0.1 to 1 µM | 0.1 to 1 µM | 0.1 to 1 µM
COc1nc(-c2ccc(OC3CC4CCC(C3)N4)nn2)ccc1-n1cccn1 (stereo not shown) [Compound 949] | 1 to 10 µM | > 10 µM | 1 to 10 µM | > 10 µM | 1 to 10 µM | 1 to 10 µM | 1 to 10 µM
COc1nc(-c2ccc(N(C)[C@@H]3C[C@H]4CC[C@@H](C3)N4)nn2)ccc1-c1cnc(C)cn1 [Compound 950] | 0.1 to 1 µM | 0.1 to 1 µM | < 0.1 µM | 1 to 10 µM | 0.1 to 1 µM | 0.1 to 1 µM | 0.1 to 1 µM

Structure (SMILES) | IC50 [1] | IC50 [2] | IC50 [3] | IC50 [4] | IC50 [5] | IC50 [6] | IC50 [7]
COc1cnc(-c2ccc(-c3ccc(N(C)[C@@H]4C[C@H]5CC[C@@H](C4)N5)nn3)nc2OC)cn1 [Compound 951] | 0.1 to 1 µM | 0.1 to 1 µM | 0.1 to 1 µM | 0.1 to 1 µM | 0.1 to 1 µM | < 0.1 µM | 0.1 to 1 µM
COc1nc(-c2ccc(N3CCC(NC(C)(C)C)C3)nn2)ccc1-n1cccn1 (stereo not shown) [Compound 957] | 1 to 10 µM | 1 to 10 µM | 1 to 10 µM | 1 to 10 µM | 1 to 10 µM | 1 to 10 µM | 1 to 10 µM
COc1nc(-c2ccc(N3CCC(NC4CC4)C3)nn2)ccc1-n1cccn1 (stereo not shown) [Compound 958] | > 10 µM | > 10 µM | 1 to 10 µM | > 10 µM | > 10 µM | > 10 µM | > 10 µM
COc1cc(-c2ccc(-c3ccc(N(C)[C@@H]4C[C@H]5CC[C@@H](C4)N5)nn3)nc2OC)cnn1 [Compound 959] | < 0.1 µM | 0.1 to 1 µM | < 0.1 µM | 0.1 to 1 µM | 0.1 to 1 µM | < 0.1 µM | 0.1 to 1 µM
COc1nc(-c2ccc(N(C)[C@@H]3C[C@H]4CC[C@@H](C3)N4)nn2)ccc1-c1cnnc(C)c1 [Compound 960] | 1 to 10 µM | 1 to 10 µM | 0.1 to 1 µM | 1 to 10 µM | 1 to 10 µM | 1 to 10 µM | > 10 µM
COc1nc(-c2ccc(O[C@@H]3C[C@H]4CC[C@@H](C3)N4)nn2)ccc1-c1ccnc(C)c1 [Compound 963] | 1 to 10 µM | 1 to 10 µM | 1 to 10 µM | > 10 µM | 1 to 10 µM | 1 to 10 µM | > 10 µM
COc1nc(-c2ccc(OC3CC4CC(F)(F)C(C3)N4)nn2)ccc1-c1ccnc(C)c1 (stereo not shown) [Compound 964] | > 10 µM | > 10 µM | > 10 µM | > 10 µM | > 10 µM | > 10 µM | > 10 µM
CC1(C)CC(Oc2ccc(-c3ccc(-c4cn[nH]c4)c(OC4CC4)n3)nn2)CC(C)(C)N1 [Compound 968] | 0.1 to 1 µM | 1 to 10 µM | 0.1 to 1 µM | 1 to 10 µM | 1 to 10 µM | 0.1 to 1 µM | 1 to 10 µM
CCOc1nc(-c2ccc(OC3CC4CC(F)(F)C(C3)N4)nn2)ccc1-c1cn[nH]c1 (stereo not shown) [Compound 970] | > 10 µM | > 10 µM | 1 to 10 µM | > 10 µM | > 10 µM | > 10 µM | > 10 µM
COc1nc(-c2ccc(OC3CC4CC(F)(F)C(C3)N4)nn2)ccc1C1C=CC(F)=C1 (stereo not shown) [Compound 971] | 1 to 10 µM | 1 to 10 µM | 1 to 10 µM | 1 to 10 µM | 1 to 10 µM | 1 to 10 µM | 1 to 10 µM
COc1cc(-c2ccc(N3CCC(NC(C)(C)C)C3)nn2)ncc1-n1cccn1 (stereo not shown) [Compound 972] | 0.1 to 1 µM | 1 to 10 µM | 0.1 to 1 µM | 1 to 10 µM | 1 to 10 µM | 0.1 to 1 µM | 1 to 10 µM
COc1nc(-c2ccc(N(C)[C@@H]3C[C@H]4CC[C@@H](C3)N4)cn2)ccc1-c1cn[nH]c1 [Compound 978] | > 10 µM | > 10 µM | > 10 µM | > 10 µM | 1 to 10 µM | 1 to 10 µM | > 10 µM
COc1nc(-c2ccc(N(C)[C@@H]3C[C@H]4CC[C@@H](C3)N4)nc2)ccc1-c1cn[nH]c1 [Compound 979] | < 0.1 µM | 0.1 to 1 µM | < 0.1 µM | 0.1 to 1 µM | 0.1 to 1 µM | < 0.1 µM | < 0.1 µM
COc1nc(-c2cnc(N(C)[C@@H]3C[C@H]4CC[C@@H](C3)N4)cn2)ccc1-c1cn[nH]c1 [Compound 980] | 1 to 10 µM | 1 to 10 µM | > 10 µM | 1 to 10 µM | 1 to 10 µM | 1 to 10 µM | 1 to 10 µM
COc1nc(-c2cnc(N(C)[C@@H]3C[C@H]4CC[C@@H](C3)N4)nc2)ccc1-c1cn[nH]c1 [Compound 981] | 0.1 to 1 µM | 1 to 10 µM | 0.1 to 1 µM | 1 to 10 µM | 0.1 to 1 µM | < 0.1 µM | 0.1 to 1 µM

Reference: patent US20240368163A1, “COMPOUNDS AND METHODS FOR MODULATING SPLICING” (REMIX THERAPEUTICS INC., priority 2021, published 2024)
